One experiment has as its target p97 (Homo sapiens, UniProt P55072). Put plainly: p97 ATPase assay (Kinase Glo Plus; biomol green for compounds that interfere with luciferase). It counts as biochemical. In outline: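 Purified p97 in 50 mM Tris pH 7.4, 20 mM MgCl2, 1 mM EDTA, 0.5 mM TCEP, preincubated 10 min with compound (0–30 μM, triplicate), then ATP 60 min at room temperature. Remaining ATP read by Kinase Glo Plus luminescence, or biomol green at 630 nm for luciferase-interfering compounds; % activity versus DMSO and no-enzyme controls, mean ± SE.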
A general note: Kinase-Glo measures the ATP left after a reaction by luminescence.

The test system of experiment [1] is p97-dependent Ub^G76V-GFP degradation in HeLa cells. Put plainly: Ub^G76V-GFP degradation (turn-over) assay. It counts as cell-based, human. Particulars: Homo sapiens, HeLa. In outline:
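HeLa cells expressing Ub^G76V-GFP were imaged, and mean GFP intensity per cell area was taken over 300-500 cells, background-subtracted and normalized to DMSO-treated basal intensity. The degradation rate constant k with compound is expressed as percent of the DMSO control k.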

[2] abbreviates: purified p97, ATP, 60 min room temperature, mean +/- standard error.
Where [3] appears, read: read-out: IC50 (μM) Ub^G76V-GFP turn over, Ub^G76V-GFP-expressing HeLa cells, degradation rate constant k from 90 to 180 min, mean +/- standard error.
Setting [4] is: read-out: IC50 (μM) Ub^G76V-GFP turn over, p97-dependent Ub^G76V-GFP degradation turn-over assay.

Like-named read-outs stand apart in the source and are kept apart here.

Chain of p97 (P55072 2-806 limits assumed): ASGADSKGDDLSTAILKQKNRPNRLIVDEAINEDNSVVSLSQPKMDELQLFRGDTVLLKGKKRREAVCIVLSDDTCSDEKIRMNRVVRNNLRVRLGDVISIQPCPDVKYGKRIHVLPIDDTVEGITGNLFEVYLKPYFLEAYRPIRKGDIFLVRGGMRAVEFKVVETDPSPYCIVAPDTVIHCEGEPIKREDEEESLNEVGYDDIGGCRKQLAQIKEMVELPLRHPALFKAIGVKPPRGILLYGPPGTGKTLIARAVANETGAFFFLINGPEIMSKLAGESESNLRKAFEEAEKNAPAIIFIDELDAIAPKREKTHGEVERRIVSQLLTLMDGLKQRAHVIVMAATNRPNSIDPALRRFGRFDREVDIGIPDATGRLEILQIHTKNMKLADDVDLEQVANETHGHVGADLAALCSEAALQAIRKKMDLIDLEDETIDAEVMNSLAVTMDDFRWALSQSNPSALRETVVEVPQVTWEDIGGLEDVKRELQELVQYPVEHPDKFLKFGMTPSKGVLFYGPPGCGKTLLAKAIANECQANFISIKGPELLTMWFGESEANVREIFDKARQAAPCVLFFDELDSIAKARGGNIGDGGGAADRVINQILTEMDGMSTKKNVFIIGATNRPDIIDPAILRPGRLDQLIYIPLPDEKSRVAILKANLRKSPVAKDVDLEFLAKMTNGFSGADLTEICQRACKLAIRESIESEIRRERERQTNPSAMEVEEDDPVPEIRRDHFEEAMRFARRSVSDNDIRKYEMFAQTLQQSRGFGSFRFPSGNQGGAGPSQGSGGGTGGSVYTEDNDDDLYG

The term IC50 denotes the concentration that inhibits the measured activity by half. On to `Cc1cccc(-c2nc(NCc3ccc(F)cc3)c3ccccc3n2)c1` [I-24], for which the results for the IC50 (at p97 (setting [2]); in experiment [1] (setting [3])) were 15 ± 2 µM and 12 ± 0.8 µM, respectively.
Take `FC(F)(F)c1ccc2c(NCc3ccccc3)nc(NCc3ccccc3)nc2c1` [VI-7]: the IC50 on p97 (setting [2]) worked out at 9.1 ± 2 µM; in experiment [1] (setting [3]) it was 19 ± 1 µM.
As for `COc1cccc2c(NCc3ccccc3)nc(NC(C)c3ccccc3)nc12` (stereo not drawn) [XI-11], the half-inhibitory concentration (IC50) at p97 (setting [2]) is 12 ± 5 µM; in experiment [1] (setting [3]) it was 2.1 ± 0.7 µM.
For `COc1ccc(-c2nc(NCc3ccccc3)c3ccccc3n2)cc1` [I-9], the IC50 was found to be 1.6 ± 0.3 µM on p97 (setting [2]) and 15 ± 2 µM in experiment [1] (setting [3]).
`Clc1cccc2nc(NCc3ccccc3)nc(NCc3ccccc3)c12` [VI-1]: the values for the IC50 (at p97 (setting [2]); in experiment [1] (setting [3])) were 2.2 ± 0.7 µM and 16 ± 2 µM, respectively.
Consider `COc1cccc2c(NCc3cccc(N(C)C)c3)nc(N3CCOc4ccccc43)nc12` [XII-2], for which the IC50 stood at 52 ± 10 µM at p97 (p97 ATPase assay) and 19 ± 4 µM in experiment [1] (setting [4]).
As to `Cc1ccc(CNc2nc(Nc3cccc(Cl)c3)nc3ccccc23)cc1` [III-1], the IC50 on p97 (setting [2]) amounted to 1.4 ± 0.3 µM; in experiment [1] (setting [3]) it was 12 ± 2 µM.
Take `COc1cccc2c(NCC3CCCCC3)nc(N3CCOc4ccccc43)nc12` [XII-6]: the IC50 at p97 (setting [2]) turned out to be 7.4 ± 0.9 µM; in experiment [1] (setting [3]), 8.2 ± 1 µM.
The corresponding values for `COc1cccc2c(NCc3ccccc3)nc(NCC3CCCCC3)nc12` [XI-13] are 5.4 ± 0.9 µM and 4.2 ± 1 µM.
Consider `CC(Nc1nc(N2CCOCC2)nc2ccccc12)c1ccccc1` (stereo not drawn) [XLVI], for which the concentration for half-maximal inhibition (IC50) at p97 (p97 ATPase assay) was found to be 34 ± 10 µM; in experiment [1] (setting [4]) it was 36 ± 0.3 µM.
As for `Clc1cccc(Nc2nc(NCc3ccccc3Br)c3ccccc3n2)c1` [III-9], the results for the IC50 (on p97 (setting [2]); in experiment [1] (setting [3])) were 4 ± 1.7 µM and 12 ± 5 µM, respectively.
As to `COc1cccc2c(NCc3ccccc3)nc(N3CCN(C)c4ccccc43)nc12` [VII-12], the figures for the IC50 (on p97 (setting [2]); in experiment [1] (setting [3])) were 3.1 ± 0.5 µM and 7.8 ± 0.7 µM, respectively.
For `COc1cccc2c(NCc3ccccc3)nc(NC(=O)N(C)C)nc12` [XI-7], the IC50 at p97 (p97 ATPase assay) was 60 ± 23 µM; in experiment [1] (setting [4]), 37 ± 7 µM.
With `CC(C)c1ccc(Nc2nc(N)nc(CCl)n2)cc1` [XIV], the figures for the 50% inhibitory concentration (IC50) (on p97 (setting [2]); in experiment [1] (setting [3])) were 15 ± 5 µM and 14 ± 2.4 µM, respectively.
`Cc1c(F)cccc1Nc1nc(NCc2ccccc2)c2ccccc2n1` [V-2]: the concentration for half-maximal inhibition (IC50) at p97 (setting [2]) is 0.9 ± 0.1 µM; in experiment [1] (setting [3]) it was 3.7 ± 0.8 µM.
Regarding `Cc1ccccc1Nc1nc(NCc2ccccc2)c2ccccc2n1` [II-7], the IC50 at p97 (setting [2]) was found to be 3.4 ± 1.5 µM; in experiment [1] (setting [3]), 10 ± 2 µM.
For `COc1cccc2c(N3CCOc4ccccc43)nc(N3CCOc4ccccc43)nc12` [XII-11], the IC50 on p97 (p97 ATPase assay) was more than 30 µM; in experiment [1] (setting [4]) it was 8.1 ± 1.8 µM.
Turning to `Nc1nc(CCl)nc(N(c2ccccc2)c2ccccc2)n1` [XIII], the IC50 at p97 (setting [2]) is 13 ± 5 µM; in experiment [1] (setting [3]), 10 ± 2 µM.
In the case of `Brc1ccc2c(NCc3ccccc3)nc(NCc3ccccc3)nc2c1` [VI-16], the IC50 on p97 (p97 ATPase assay) was found to be 22 ± 4 µM; in experiment [1] (setting [4]), 10 ± 2 µM.
As for `COc1ccccc1CNc1nc(NCc2ccccc2)c2ccccc2n1` [IV-10], the IC50 was 3.6 ± 0.8 µM at p97 (setting [2]) and 1.9 ± 0.2 µM in experiment [1] (setting [3]).
On to `Cc1ccc(Cl)cc1Nc1nc(NCc2ccccc2)c2ccccc2n1` [V-9], for which the IC50 at p97 (setting [2]) came to 0.8 ± 0.07 µM; in experiment [1] (setting [3]), 7 ± 1.5 µM.
As to `COc1cccc2c(NCc3ccccc3)nc(N3CCN(C)CC3)nc12` [XI-4], the half-maximal inhibitory concentration (IC50) at p97 (p97 ATPase assay) was more than 30 µM; in experiment [1] (setting [4]), 45 ± 18 µM.
With `CCc1nc2ccccc2n1CC(=O)OCC(=O)C(C#N)=C1Nc2ccccc2N1` [XIX], the half-maximal inhibitory concentration (IC50) on p97 (setting [2]) came to 14 ± 6 µM; in experiment [1] (setting [3]), 7.2 ± 1.1 µM.
Turning to `Fc1cccc2nc(NCc3ccccc3)nc(NCc3ccccc3)c12` [VI-2], the figures for the IC50 (on p97 (setting [2]); in experiment [1] (setting [3])) were 1.2 ± 0.3 µM and 13 ± 2 µM, respectively.
On to `COc1ccc(Cl)cc1Nc1nc(NCc2ccccc2)c2ccccc2n1` [V-10], for which the 50% inhibitory concentration (IC50) worked out at 1.1 ± 0.2 µM at p97 (setting [2]) and 16 ± 6 µM in experiment [1] (setting [3]).
For `Clc1cccc(CNc2nc(Nc3cccc(Cl)c3)nc3ccccc23)c1` [III-12], the IC50 at p97 (setting [2]) was 5 ± 1.2 µM; in experiment [1] (setting [3]), 15 ± 4 µM.
With `COc1cccc2c(NCc3ccccc3)nc(Nc3nc4ccccc4s3)nc12` [XI-5], the IC50 at p97 (setting [2]) turned out to be 0.5 ± 0.2 µM; in experiment [1] (setting [3]), 14 ± 2 µM.

(Values after patent publication US20110288082A1, “METHODS AND COMPOSITIONS FOR INHIBITION OF THE TRANSITIONAL ENDOPLASMIC RETICULUM ATPASE” (priority 2010, published 2011).)
